Experimental data published in ChEMBL document CHEMBL5576060, “Discovery of acetophenone/piperazin-2-one hybrids as selective anti-TNBC cancer agents by causing DNA damage” (Bioorg Med Chem Lett, 2024).
Calls of active or inactive are those of the source. The calls are words filed in the database; no cut-off is given here.

Legend:
[1] = Antiproliferative activity against human MCF-10A cells assessed as inhibition of cell growth; type: toxicity, cell-based
[2] = tested on: BT-474; test: Antiproliferative activity against human BT-474 cells assessed as inhibition of cell growth; type: functional, cell-based
[3] = tested on: MDA-MB-468; test: Antiproliferative activity against human MDA-MB-468 cells assessed as inhibition of cell growth; type: functional, cell-based
[4] = tested on: MDA-MB-468; test: Antiproliferative activity against human MDA-MB-468 cells assessed as inhibition of cell growth at 10 uM incubated for 72 hrs; type: functional
[5] = tested on: JIMT-1; test: Antiproliferative activity against human JIMT-1 cells assessed as inhibition of cell growth; type: functional, cell-based
[6] = tested on: SK-BR-3; test: Antiproliferative activity against human SK-BR-3 cells assessed as inhibition of cell growth; type: functional, cell-based
[7] = tested on: MCF7; test: Antiproliferative activity against human MCF7 cells assessed as inhibition of cell growth; type: functional, cell-based
[8] = tested on: MCF-10A; test: Effect on HSP70 expression in human MCF-10A cells at 20 uM measured for 48 hrs by immunoblot analysis; type: functional, cell-based
[9] = tested on: MCF-10A; test: Effect on P53 expression in human MCF-10A cells at 20 uM measured for 48 hrs by immunoblot analysis; type: functional, cell-based
[10] = tested on: MDA-MB-468; test: Induction of cell cycle arrest in human MDA-MB-468 cells assessed as accumulation of cells at S phase at 5 uM measured for 48 hrs by PI staining based flow cytometry analysis (reference value: 4.39%); type: functional
[11] = tested on: MCF-10A; test: Effect on P38 expression in human MCF-10A cells at 20 uM measured for 48 hrs by immunoblot analysis; type: functional, cell-based
[12] = tested on: MDA-MB-468; test: Effect on HSF-1 level in human MDA-MB-468 cells upto 20 uM; type: functional, cell-based
[13] = tested on: MDA-MB-468; test: Induction of cell cycle arrest in human MDA-MB-468 cells assessed as accumulation of cells at G1 phase at 10 uM measured for 48 hrs by PI staining based flow cytometry analysis (reference value: 80.8%); type: functional
[14] = tested on: MDA-MB-468; test: Downregulation of HSP70 expression in human MDA-MB-468 cells upto 20 uM; type: functional, cell-based
[15] = tested on: MDA-MB-468; test: Induction of cell cycle arrest in human MDA-MB-468 cells assessed as accumulation of cells at G2 phase at 20 uM measured for 48 hrs by PI staining based flow cytometry analysis (reference value: 16.4%); type: functional
[16] = tested on: JIMT-1; test: Effect on P38 expression in human JIMT- 1 cells at 20 uM measured for 48 hrs by immunoblot analysis; type: functional, cell-based
[17] = tested on: SK-BR-3; test: Effect on P38 expression in human SK-BR-3 cells at 20 uM measured for 48 hrs by immunoblot analysis; type: functional, cell-based
[18] = tested on: MCF-10A; test: Effect on gammaH2AX expression in human MCF-10A cells at 20 uM measured for 48 hrs by immunoblot analysis; type: functional, cell-based
[19] = tested on: MCF7; test: Effect on P53 expression in human MCF7 cells at 20 uM measured for 48 hrs by immunoblot analysis; type: functional, cell-based
[20] = tested on: SK-BR-3; test: Effect on gamma H2AX expression in human SK-BR-3 cells at 20 uM measured for 48 hrs by immunoblot analysis; type: functional, cell-based
[21] = tested on: MDA-MB-468; test: Induction of cell cycle arrest in human MDA-MB-468 cells assessed as accumulation of cells at S phase at 10 uM measured for 48 hrs by PI staining based flow cytometry analysis (reference value: 4.39%); type: functional
[22] = molecular target: MAP kinase p38 (Homo sapiens) (UniProt O15264+Q15759+Q16539+P53778); test: Inhibition of P38 phosphorylation in human MDA-MB-468 cells upto 20 uM; type: cell-based
[23] = tested on: BT-474; test: Effect on P38 expression in human BT-474 cells at 20 uM measured for 48 hrs by immunoblot analysis; type: functional, cell-based
[24] = Selectivity index, ratio of IC50 for antiproliferative activity against human BT-474 cells assessed as inhibition of cell growth to IC50 for antiproliferative activity against human MDA-MB-468 cells assessed as inhibition of cell growth; type: functional
[25] = tested on: MDA-MB-468; test: Induction of cell cycle arrest in human MDA-MB-468 cells assessed as accumulation of cells at G2 phase at 10 uM measured for 48 hrs by PI staining based flow cytometry analysis (reference value: 16.4%); type: functional
[26] = tested on: MDA-MB-468; test: Induction of cell cycle arrest in human MDA-MB-468 cells assessed as accumulation of cells at G2 phase at 5 uM measured for 48 hrs by PI staining based flow cytometry analysis (reference value: 16.4%); type: functional
[27] = tested on: BT-474; test: Effect on P53 expression in human BT-474 cells at 20 uM measured for 48 hrs by immunoblot analysis; type: functional, cell-based
[28] = tested on: MDA-MB-468; test: Induction of DNA damage in human MDA-MB-468 cells assessed as increase in p53 expression; type: functional, cell-based; conditions: dose <= 20.0 µM
[29] = tested on: JIMT-1; test: Effect on HSP70 expression in human JIMT- 1 cells at 20 uM measured for 48 hrs by immunoblot analysis; type: functional, cell-based
[30] = tested on: MDA-MB-468; test: Induction of DNA damage in human MDA-MB-468 cells assessed as increase in accumulation of gammaH2AX level; type: functional, cell-based; conditions: dose <= 20.0 µM
[31] = tested on: SK-BR-3; test: Effect on P53 expression in human SK-BR-3 cells at 20 uM measured for 48 hrs by immunoblot analysis; type: functional, cell-based
[32] = tested on: MDA-MB-468; test: Induction of cell cycle arrest in human MDA-MB-468 cells assessed as accumulation of cells at S phase at 20 uM measured for 48 hrs by PI staining based flow cytometry analysis (reference value: 4.39%); type: functional
[33] = tested on: SK-BR-3; test: Effect on HSP70 expression in human SK-BR-3 cells at 20 uM measured for 48 hrs by immunoblot analysis; type: functional, cell-based
[34] = tested on: MCF7; test: Effect on P38 expression in human MCF7 cells at 20 uM measured for 48 hrs by immunoblot analysis; type: functional, cell-based
[35] = tested on: MDA-MB-468; test: Effect on HSP90 level in human MDA-MB-468 cells upto 20 uM; type: functional, cell-based
[36] = tested on: MDA-MB-468; test: Potency index, ratio of cisplatin IC50 to test compound IC50 for antiproliferative activity against human MDA-MB-468 cells assessed as inhibition of cell growth; type: functional
[37] = tested on: BT-474; test: Effect on HSP70 expression in human BT-474 cells at 20 uM measured for 48 hrs by immunoblot analysis; type: functional, cell-based
[38] = tested on: JIMT-1; test: Effect on P53 expression in human JIMT- 1 cells at 20 uM measured for 48 hrs by immunoblot analysis; type: functional, cell-based
[39] = tested on: MDA-MB-468; test: Induction of cell cycle arrest in human MDA-MB-468 cells assessed as accumulation of cells at G1 phase at 5 uM measured for 48 hrs by PI staining based flow cytometry analysis (reference value: 80.8%); type: functional
[40] = tested on: MDA-MB-468; test: Induction of cell cycle arrest in human MDA-MB-468 cells assessed as accumulation of cells at G1 phase at 20 uM measured for 48 hrs by PI staining based flow cytometry analysis (reference value: 80.8%); type: functional
[41] = tested on: MCF7; test: Effect on HSP70 expression in human MCF7 cells at 20 uM measured for 48 hrs by immunoblot analysis; type: functional, cell-based
[42] = tested on: MCF7; test: Effect on gammaH2AX expression in human MCF7 cells at 20 uM measured for 48 hrs by immunoblot analysis; type: functional, cell-based
[43] = tested on: BT-474; test: Effect on gammaH2AX expression in human BT-474 cells at 20 uM measured for 48 hrs by immunoblot analysis; type: functional, cell-based
[44] = tested on: JIMT-1; test: Effect on gammaH2AX expression in human JIMT- 1 cells at 20 uM measured for 48 hrs by immunoblot analysis; type: functional, cell-based

**Q.** What does the source list for `O=C1Nc2ccccc2N/C1=C\C(=O)c1ccccc1`?
**A.** IC50 [1]: > 10 µM; IC50 [2]: > 10 µM; IC50 [3]: 7.73 µM; inhibition at 10 µM [4]: 50%; IC50 [5]: > 10 µM; IC50 [6]: > 10 µM; IC50 [7]: > 10 µM

**Q.** Which results are given for `O=C1Nc2ccccc2N/C1=C\C(=O)c1cccc(OCc2ccccc2)c1`?
**A.** IC50 [1]: 47.5 µM; IC50 [2]: 28.7 µM; Activity [8]: inactive; IC50 [3]: 6.5 µM; Activity [9]: inactive; Activity [10]: 9.32%; Activity [11]: inactive; Activity [12]: inactive; Activity [13]: 69.1%; Activity [14]: Active; Activity [15]: 22.8%; Activity [16]: inactive; Activity [17]: inactive; Activity [18]: inactive; Activity [19]: inactive; Activity [20]: inactive; Activity [21]: 13.3%; inhibition at 10 µM [4]: 50%; inhibition [22]: Active; Activity [23]: inactive; Ratio IC50 [24]: 4.4; Activity [25]: 19.1%; Activity [26]: 17.4%; Activity [27]: inactive; Activity [28]: Dose-Dependent Effect; Activity [29]: inactive; Activity [30]: Dose-Dependent Effect; Activity [31]: inactive; Activity [32]: 20%; Activity [33]: inactive; Activity [34]: inactive; IC50 [5]: 44.9 µM; Activity [35]: inactive; IC50 [6]: > 60 µM; Ratio IC50 [36]: 2; Activity [37]: inactive; Activity [38]: inactive; Activity [39]: 75%; IC50 [7]: 41.6 µM; Activity [40]: 58.7%; Activity [41]: inactive; Activity [42]: inactive; Activity [43]: inactive; Activity [44]: inactive
